Assays:
[1] = system: MDSCs; experiment: Inhibition of MDSC chemotaxis (Transwell, Hepa1-6 tumor-conditioned medium); type: cell-based, mice; details: 12 h treatment, 24 h Transwell
How it was run: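 Mouse bone marrow cells were differentiated into MDSCs with GM-CSF and IL-4 (10 ng/mL each) and placed in Transwell upper chambers. Migration toward Hepa1-6 tumour-conditioned medium (24 h supernatant, filtered) or normal medium in the lower chamber was allowed for 24 h.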

[2] = system: MC903-induced atopic dermatitis (AD); experiment: MC903-induced ear atopic dermatitis mouse model, oral Compound 20: dermatitis score, ear thickness, serum IgE; details: for IgE: serum, AD mice
[3] = system: Hepa1-6 cells; type: in vivo; details: Hepa1-6 xenograft, male C57BL/6 mice, compound 20 alone, dose 1 (head µmol/kg/day; text 1 mg/kg/day), intraperitoneal daily, 2 weeks
Description: Hepa1-6 cells were cultured and expanded in vitro. An appropriate amount of cells in the logarithmic growth phase was resuspended in a mixture of serum-free DMEM medium and Matrigel (1:1). Under sterile conditions, prepare a cell suspension at 2.5 × 10^6 cells/100 µL. Using a syringe, inject 100 µL of the cell suspension subcutaneously into the left forelimb axilla of male C57BL/6 mice. […]. […] During the treatment period, mouse body weight and tumor diameter were measured daily. At the end of the experiment, mice were euthanized by cervical dislocation, and tumors were removed and weighed. Tumor volume (TV) was calculated using the formula: TV = 1/2 × a × b^2, where a represents the longest diameter of the tumor and b represents the shortest diameter.

## C=C1C(=O)O[C@@H]2[C@@H]3[C@]4(CC[C@@]3(C)O)C[C@]4(C)CC[C@@H]12 [compound 1]
[1]; 1 µM
  Suppression Rate (%): 42.3%
[1]; 10 µM
  Suppression Rate (%): 83.3%

## CN(C)C[C@@H]1C(=O)O[C@H]2[C@H]1CC[C@@]1(C)C[C@]13CC[C@@](C)(O)[C@H]23 [compound 20]
[2]; oral 0.1 mg/kg, Day 1
  atopic dermatitis score: 0.00±0.00
  ear thickness: 0.20±0.00 mm
[2]; oral 0.1 mg/kg, Day 3
  atopic dermatitis score: 0.67±0.21
  ear thickness: 0.24±0.00 mm
[2]; oral 0.1 mg/kg, Day 5
  atopic dermatitis score: 1.33±0.21
  ear thickness: 0.26±0.00 mm
[2]; oral 0.1 mg/kg, Day 7
  atopic dermatitis score: 2.17±0.17
  ear thickness: 0.26±0.00 mm
[2]; oral 0.1 mg/kg, Day 8
  atopic dermatitis score: 2.50±0.22
  ear thickness: 0.27±0.00 mm
[2]; oral 0.1 mg/kg, Day 9
  atopic dermatitis score: 3.00±0.26
  ear thickness: 0.28±0.00 mm
[2]; oral 0.1 mg/kg, Day 10
  atopic dermatitis score: 3.50±0.22
  ear thickness: 0.29±0.00 mm
[2]; oral 0.1 mg/kg, Day 11
  atopic dermatitis score: 3.67±0.21
  ear thickness: 0.30±0.00 mm
[2]; oral 0.1 mg/kg, Day 12
  atopic dermatitis score: 3.33±0.21
  ear thickness: 0.30±0.00 mm
[2]; oral 0.1 mg/kg, Day 13
  atopic dermatitis score: 3.00±0.00
  ear thickness: 0.30±0.00 mm
[2]; oral 0.1 mg/kg, Day 14
  atopic dermatitis score: 2.67±0.21
  ear thickness: 0.29±0.00 mm
[2]; oral 1 mg/kg, Day 1
  atopic dermatitis score: 0.00±0.00
  ear thickness: 0.20±0.00 mm
[2]; oral 1 mg/kg, Day 3
  atopic dermatitis score: 0.50±0.22
  ear thickness: 0.23±0.00 mm
[2]; oral 1 mg/kg, Day 5
  atopic dermatitis score: 1.17±0.17
  ear thickness: 0.24±0.00 mm
[2]; oral 1 mg/kg, Day 7
  atopic dermatitis score: 1.67±0.21
  ear thickness: 0.26±0.00 mm
[2]; oral 1 mg/kg, Day 8
  atopic dermatitis score: 2.17±0.17
  ear thickness: 0.27±0.00 mm
[2]; oral 1 mg/kg, Day 9
  atopic dermatitis score: 2.83±0.17
  ear thickness: 0.28±0.00 mm
[2]; oral 1 mg/kg, Day 10
  atopic dermatitis score: 3.00±0.00
  ear thickness: 0.28±0.00 mm
[2]; oral 1 mg/kg, Day 11
  atopic dermatitis score: 3.17±0.17
  ear thickness: 0.28±0.00 mm
[2]; oral 1 mg/kg, Day 12
  atopic dermatitis score: 2.67±0.21
  ear thickness: 0.27±0.00 mm
[2]; oral 1 mg/kg, Day 13
  atopic dermatitis score: 2.50±0.22
  ear thickness: 0.27±0.00 mm
[2]; oral 1 mg/kg, Day 14
  atopic dermatitis score: 2.00±0.00
  ear thickness: 0.27±0.00 mm
[2]; oral 10 mg/kg, Day 1
  atopic dermatitis score: 0.00±0.00
  ear thickness: 0.20±0.00 mm
[2]; oral 10 mg/kg, Day 3
  atopic dermatitis score: 0.67±0.21
  ear thickness: 0.23±0.00 mm
[2]; oral 10 mg/kg, Day 5
  atopic dermatitis score: 1.00±0.00
  ear thickness: 0.25±0.00 mm
[2]; oral 10 mg/kg, Day 7
  atopic dermatitis score: 2.00±0.00
  ear thickness: 0.26±0.00 mm
[2]; oral 10 mg/kg, Day 8
  atopic dermatitis score: 2.50±0.22
  ear thickness: 0.27±0.00 mm
[2]; oral 10 mg/kg, Day 9
  atopic dermatitis score: 2.83±0.17
  ear thickness: 0.27±0.00 mm
[2]; oral 10 mg/kg, Day 10
  atopic dermatitis score: 2.67±0.42
  ear thickness: 0.27±0.00 mm
[2]; oral 10 mg/kg, Day 11
  atopic dermatitis score: 3.00±0.26
  ear thickness: 0.27±0.00 mm
[2]; oral 10 mg/kg, Day 12
  atopic dermatitis score: 2.33±0.33
  ear thickness: 0.25±0.00 mm
[2]; oral 10 mg/kg, Day 13
  atopic dermatitis score: 1.67±0.21
  ear thickness: 0.25±0.00 mm
[2]; oral 10 mg/kg, Day 14
  atopic dermatitis score: 1.50±0.22
  ear thickness: 0.24±0.01 mm
[2]; oral 0.1 mg/kg
  IgE: 239.26 ± 48.93 ng/mL
[2]; oral 1 mg/kg
  IgE: 167.90 ± 21.03 ng/mL
[2]; oral 10 mg/kg
  IgE: 145.68 ± 23.19 ng/mL
[3]
  Tumor Inhibition Rate (%): 72.37%
  Tumor weight: 0.12 ± 0.09 g

— patent publication EP4813381A1, “PHARMACEUTICAL USE OF GUAIANE SESQUITERPENE DERIVATIVE” (Nanjing University Of Chinese Medicine, priority 2023, dated 2025)
